One assay relates to IL-1β. As to the kind of experiment: Whole bovine blood assay, LPS-induced IL-1β (inhibition / overstimulation). It is filed as cell-based. Particulars: Bos taurus, 18 h, drug concentration giving overstimulation (OS) of LPS-induced IL-1β, top concentration 250 μM. In short, it runs like this:
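Fresh heparinized bovine whole blood was preincubated with compound at varying concentrations for 4 h at 37 °C, then stimulated with 1 μg/mL LPS for 18 h. Plasma IL-1β was measured by MSD chemiluminescent immunoassay and normalized to total protein. Values cover inhibition and concentration-dependent overstimulation.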

Another assay concerns IL-6. The assay can be described thus: Whole bovine blood assay, LPS-induced IL-6. It is filed as cell-based. Particulars: Bos taurus, fresh whole bovine blood, LPS stimulant; top drug concentration 250 μM.
Another assay relates to H. somni. The assay can be described thus: MIC, H. somni strains. It is filed as cell-based. Particulars: lung isolates at necropsy, natural BRD study, n=25. From the text:
Primary screening of the compounds of the invention included the evaluation of antibacterial activity of analogs through determination of microbial inhibition concentration (MIC) as per CLSI guidelines. The screening panel included the relevant BRD pathogens: 1) M. haemolytica (e.g., 12726, 46571 and 49023, all AHDRCC; and 33396 (ATCC)); and 2) P. multocida (e.g., 34135 and 46572 (both AHDRCC) and 43137 (ATCC)). In some instances, H. somni (A700025K) pathogens were also included in the screening panel. The AHDRCC strains originated from the Zoetis BRD/SRD surveillance program and refer to the Animal Health Development and Research Culture Collection. In addition, the screen assessed S. aureus (29213 ATCC) as a representative Gram-positive isolate, E.faecalis (19433 ATCC) as a commensal gram-positive gastrointestinal bacterium and E. coli (100, 3110 and 25922 (ATCC)) for the evaluation of efflux potential. The screening panel BRD pathogens were assessed in determining antibacterial activity of the Formula (1) compounds.
All relevant BRD pathogens were initially screened at a top concentration of 64 μg/mL of a Formula (1) compound in an eleven-point dilution series. […] If an Example was purified further, the MICs moved […] essentially two dilutions across all strains tested in the screening panel.
In-Vitro MIC Model Compounds were analyzed for antibacterial activity against a panel of animal health specific gram-positive and gram-negative clinical strains by diluting compounds in DMSO to an appropriate stock concentration to determine the Minimal Inhibitory Concentration (MIC) via a semi-automated broth micro-dilution method (CLSI reference method) with QC strains and anti-microbial agent(s). Specifically, bacteria were grown overnight on TSA w/5% sheep blood agar plates and diluted in saline buffer to a McFarland Standard 0.5, then further diluted in cation-ion adjusted Mueller Hinton Broth to a final concentration of approximately 5×10^5 CFU/mL. 100 μL of inoculated media was added to 96-well plate(s) with 3 μL of serially diluted compound in each row. Depending on strain (see CLSI reference method), bacteria were incubated 18-22 hours at 35-37° C. in ambient air, with 5% CO2 or anaerobically (up to 48 hours).

Assay [1] relates to M. haemolytica challenge model. As to the kind of experiment: Separate study, M9 versus saline control: lung lesions and mortality. It is filed as in vivo. Particulars: 10 mg/kg; saline control 38.9%, p=0.025. From the text: BRD infection as compared to saline (T01) in the M. haemolytica challenge model. […] Additionally, reduction of biomarkers consistent with the proposed mechanism were observed.

The structures appear in SMILES notation.

Turning to `CC[C@H]1OC(=O)[C@H](C)[C@@H](O[C@H]2C[C@@](C)(OC)[C@](O)(CN3CCCCC3)[C@H](C)O2)[C@H](C)[C@@H](O[C@@H]2O[C@H](C)C[C@H](N(C)S(=O)(=O)c3ccc(Cl)cc3)[C@H]2O)[C@](C)(O)C[C@@H](C)CN[C@H](C)[C@@H](O)[C@]1(C)O` [Example C-4, 4-chloro-N-((2S,3R,4S,6R)-2-(((2R,3S,4R,5R,8R,10R,11R,12S,13S,14R)-2-ethyl-3,4,10-trihydroxy-13-(((2R,4R,5S,6S)-5-hydroxy-4-methoxy-4,6-dimethyl-5-(piperidin-1-ylmethyl)tetrahydro-2H-pyran-2-yl)oxy)-3,5,8, 10, 12, 14-hexamethyl-15-oxo-1-oxa-6-azacyclopentadecan-11-yl)oxy)-3-hydroxy-6-methyltetrahydro-2H-pyran-4-yl)-N-methylbenzenesulfonamide], the minimal effective concentration with IL-1β amounted to 16 µM.

Turning to `CC[C@H]1OC(=O)[C@H](C)[C@@H](O)[C@H](C)[C@@H](O[C@@H]2O[C@H](C)C[C@H](N(C)S(=O)(=O)c3ccccc3)[C@H]2Oc2ccc(OC)cc2)[C@](C)(O)C[C@@H](C)CN[C@H](C)[C@@H](O)[C@]1(C)O` [Example A-9, N-((2S,3R,4S,6R)-2-(((2R,3S,4R,5R,8R,10R,11R,12S,13S,14R)-2-ethyl-3,4,10,13-tetrahydroxy-3,5,8,10, 12, 14-hexamethyl-15-oxo-1-oxa-6-azacyclopentadecan-11-yl)oxy)-3-(4-methoxyphenoxy)-6-methyltetrahydro-2H-pyran-4-yl)-N-methylbenzenesulfonamide], in the assay on IL-6, the midpoint of inhibition, the IC50, lay at 21 µM. Moreover, in the assay with IL-1β, the minimal effective concentration is 16 µM.

Consider `CCCNC[C@]1(O)[C@H](C)O[C@@H](O[C@H]2[C@H](C)[C@@H](O[C@@H]3O[C@H](C)C[C@H](NC)[C@H]3O)[C@](C)(O)C[C@@H](C)CN[C@H](C)[C@@H](O)[C@](C)(O)[C@@H](CC)OC(=O)[C@@H]2C)C[C@@]1(C)OC` [Example M9, (2R,3S,4R,5R,8R,10R,11R,12S,13S,14R)-2-ethyl-3,4, 10-trihydroxy-13-(((2R,4R,5S,6S)-5-hydroxy-4-methoxy-4,6-dimethyl-5-((propylamino)methyl)-tetrahydro-2H-pyran-2-yl)oxy)-11-(((2S,3R,4S,6R)-3-hydroxy-6-methyl-4-(methylamino)tetrahydro-2H-pyran-2-yl)oxy)-3,5,8,10,12,14-hexamethyl-1-oxa-6-azacyclopentadecan-15-one], for which the “MIC Range” value with H. somni fell in the range of 8 to 64 µg/mL. Besides, the Mortality in assay [1] amounted to 13%.

Consider `CCCNC[C@]1(O)[C@H](C)O[C@@H](O[C@H]2[C@H](C)[C@@H](O[C@@H]3O[C@H](C)C[C@H](N(C)S(=O)(=O)c4ccc(C)cc4)[C@H]3O)[C@](C)(O)C[C@@H](C)CN[C@H](C)[C@@H](O)[C@](C)(O)[C@@H](CC)OC(=O)[C@@H]2C)C[C@@]1(C)OC` [Example B-26, N-((2S,3R,4S,6R)-2-(((2R,3S,4R,5R,8R,10R,11R,12S,13S,14R)-2-ethyl-3,4,10-trihydroxy-13-(((2R,4R,5S,6S)-5-hydroxy-4-methoxy-4,6-dimethyl-5-((propylamino)methyl)tetrahydro-2H-pyran-2-yl)oxy)-3,5,8,10,12,14-hexamethyl-15-oxo-1-oxa-6-azacyclopentadecan-11-yl)oxy)-3-hydroxy-6-methyltetrahydro-2H-pyran-4-yl)-N,4-dimethylbenzenesulfonamide], for which, in the assay on IL-1β, the minimal effective concentration is 16 µM.

`CC[C@H]1OC(=O)[C@H](C)[C@@H](O[C@H]2C[C@@](C)(OC)[C@](O)(CN3CCCCC3)[C@H](C)O2)[C@H](C)[C@@H](O[C@@H]2O[C@H](C)C[C@H](N(C)S(=O)(=O)Nc3ccc(C(F)(F)F)cc3)[C@H]2O)[C@](C)(O)C[C@@H](C)CN[C@H](C)[C@@H](O)[C@]1(C)O` [Example C-11, (2R,3S,4R,5R,8R,10R,11R,12S, 13S, 14R)-2-ethyl-3,4, 10-trihydroxy-13-[(2R,4R,5S,6S)-5-hydroxy-4-methoxy-4,6-dimethyl-5-(piperidin-1-ylmethyl)oxan-2-yl]oxy-11-[(2S,3R,4S,6R)-3-hydroxy-6-methyl-4-[methyl-[[4-(trifluoromethyl)phenyl]sulfamoyl]amino]oxan-2-yl]oxy-3,5,8, 10, 12, 14-hexamethyl-15-oxo-1-oxa-6-azacyclopentadecane]: the IC50 in the assay on IL-6 came out at 13 µM.

`CCCNC[C@]1(O)[C@H](C)O[C@@H](O[C@H]2[C@H](C)[C@@H](O[C@@H]3O[C@H](C)C[C@H](N(C)S(=O)(=O)Nc4ccc(C(F)(F)F)cc4)[C@H]3O)[C@](C)(O)C[C@@H](C)CN[C@H](C)[C@@H](O)[C@](C)(O)[C@@H](CC)OC(=O)[C@@H]2C)C[C@@]1(C)OC` [Example B-50, (2R,3S,4R,5R,8R,10R,11R,12S,13S, 14R)-2-ethyl-3,4,10-trihydroxy-13-[(2R,4R,5S,6S)-5-hydroxy-4-methoxy-4,6-dimethyl-5-(propylaminomethyl)oxan-2-yl]oxy-11-[(2S,3R,4S,6R)-3-hydroxy-6-methyl-4-[methyl-[[4-(trifluoromethyl)phenyl]sulfamoyl]amino]oxan-2-yl]oxy-3,5,8, 10, 12, 14-hexamethyl-15-oxo-1-oxa-6-azacyclopentadecane] had an IC50 in the assay with IL-6 of 49 µM. Further, the minimal effective concentration in the assay on IL-1β amounted to 6 µM.

As usually defined, the minimal effective concentration is the smallest amount tested that counted as effective. The low end stands for greater potency, the high end for weaker potency. As a reminder, the IC50 is the point on the concentration scale where inhibition reaches its midpoint. Read a low IC50 as inhibition by little substance.
